# Tested on: human myeloma cell line MM.1S
# Assay: SILAC acetylated-lysine peptide profiling, HDAC inhibitor vs DMSO (light/heavy ratio)
# Format: cell-based
# Text: An embodiment of the invention comprises utilizing the SILAC method in order to quantitate changes in protein expression between two or more populations of cells. The SILAC method is a technique based on mass spectrometry that detects differences in protein abundance among samples using non-radioactive isotopic labeling. The SILAC method is known in the art, and described in detail in Ong et al., “Stable Isotope Labeling by Amino Acids in Cell Culture, SILAC, as a Simple and Accurate Approach to Expression Proteomics”, Molecular & Cellular Proteomics, vol. 1, pp. 376-386 (2002), which is incorporated herein by reference in its entirety.
# Briefly, the SILAC method involves growing two populations of cells in cell culture. The first population of cells is grown in growth media containing normal amino acids (“normal media”). The second population of cells is grown in media lacking a standard essential amino acid (such as lysine), but is then supplemented with a non-radioactive, isotopically labeled form of that essential amino acid (such as lysine labeled with ^13C atoms, rather than normal ^12C atoms), which is called “heavy media”. When the two populations of cells are each growing in the medium, they incorporate the amino acids into all of their proteins. The growth of cells maintained in the heavy media is no different from that in normal media. All peptides containing the heavy amino acids are heavier than their normal counterparts. The cells from each of the two populations of cells are lysed. The lysates from each of the two cell populations are then combined. The combined cell lysates are then analyzed by mass spectrometry. Pairs of chemically identical peptides of different stable isotope composition can be differentiated in a mass spectrometer due to their difference in mass. The ratio of peak intensities in the mass spectrum for such peptide pairs reflects the abundance ratio for the two proteins.
# This example describes SILAC studies that were performed to compare the effects of three different HDAC inhibitors (Compound A, Compound B, and tubastatin A) to a control on a human multiple myeloma cell line. The HDAC inhibitors were also compared amongst themselves to determine differences in their effects.
# A human myeloma cell line MM.1S was grown using either ^12C (light) or ^13C (heavy) lysine containing culture medium. The “heavy” cells were treated with DMSO as the control, and the “light” cells were treated with a single HDAC inhibitor at 37° C. for 6 hours. The heavy and light cells were lysed, and the lysates were mixed in 1:1 ratio and digested with the protease trypsin. The acetylated lysine containing peptides (due to the action of the HDAC inhibitor) in the digested peptide pool were captured by a non-specific anti-acetylated lysine antibody cocktail (the antibodies identify both light and heavy acetylated peptides), and subjected to mass spectrometry analysis in order to identify thousands of individual peptides.
# Thousands of peptides were identified in pairs (^12C and ^13C) due to their known mass differences. The amino acid sequence and quantitative ratio (Light/Heavy) of a given peptide in two differentially treated cell lysates were then determined and annotated with their possible protein (gene) sources.
# As stated above, three HDAC inhibitors (Compound A, Compound B, and Tubastatin A) were used. Thus, the SILAC method was performed three times, with a different HDAC inhibitor compared to a control each time. Accordingly, there are three pairs of quantitative data in the table below, i.e., Compound A:DMSO, Compound B:DMSO, and Tubastatin A:DMSO. A cut-off of 1.30 fold of change (increase or decrease) was then used to determine “changed” or “+” in the table, and any peptides with a fold of change less than 1.3 fold were determined to be “unchanged” or “0” in the table. Those peptides that were not identified were marked as “NA” in the table. […]
smiles,measurement,setting,value
"O=C(NO)c1cnc(NC2(c3cccc(F)c3)CCCCC2)nc1 [Compound B, 2-((1-(3-fluorophenyl)cyclohexyl)amino)-N-hydroxypyrimidine-5-carboxamide]",L/H ratio of acetylated peptide,"LCMLYHPDK(ac)HRDPELK (SEQ ID NO: 389), Isoform 3 of DnaJ homolog subfamily C member 11 [45], DNAJC11",−0.69 log 2
same,L/H ratio of acetylated peptide,"LHSNYYK(ac)HK (SEQ ID NO: 371), Uncharacterized protein C6orf125 [69], C6orf125",0.52 log 2
same,L/H ratio of acetylated peptide,"LHYK(ac)HESWLLHR (SEQ ID NO: 385), Deoxycytidine kinase [211], DCK",−0.43 log 2
same,"light to heavy ratio (L/H ratio) of acetylated peptide, log 2 scale","LIK(ac)VHLDK (SEQ ID NO: 215), 40S ribosomal protein S7 [155], RPS7",0.00
same,L/H ratio of acetylated peptide,"LK(ac)ADVFK (SEQ ID NO: 375), Isoform 1 of Chromodomain-helicase-DNA-binding protein 4 [959], CHD4",−0.45 log 2
same,L/H ratio of acetylated peptide,"LK(ac)AEKYR (SEQ ID NO: 414), Isoform 1 of Leucine-rich repeat and IQ domain-containing protein 3 [557], LRRIQ3",−1.00 log 2
same,L/H ratio of acetylated peptide LYK(ac)[…] (SEQ ID NO: 4),"LMNB1 [261], log 2 scale, drug vs DMSO",0.48
same,L/H ratio of acetylated peptide […](ac)LENAR (SEQ ID NO: 58),"LMNB1 [271], log 2 scale, drug vs DMSO",0.00
same,"light to heavy ratio (L/H ratio) of acetylated peptide, log 2 scale","LNEQK(ac)LAQLEEAK (SEQ ID NO: 133), ATP synthase subunit b mitochondrial [131], ATP5F1",0.00
same,L/H ratio of acetylated peptide,"LNPK(ac)[…] (SEQ ID NO: 448), Serine hydroxymethyltransferase mitochondrial [200], SHMT2",−0.41 log 2
same,L/H ratio of acetylated peptide GFGYK(ac)GSCFHR (SEQ ID NO: 59),"LOC390956 [71], log 2 scale, drug vs DMSO",0.00
same,"light to heavy ratio (L/H ratio) of acetylated peptide, log 2 scale","LSLDK(ac)VFR (SEQ ID NO: 226), Stomatin-like protein 2 [145], STOML2",0.00
same,"light to heavy ratio (L/H ratio) of acetylated peptide, log 2 scale","LTEAKPVDK(ac)VK (SEQ ID NO: 221), cDNA FLJ60124 highly similar to Mitochondrial dicarboxylate carrier [142], SLC25A10",0.00
same,L/H ratio of acetylated peptide,"LVQTAELTK(ac)VFEIR (SEQ ID NO: 398), Glia maturation factor gamma [119], GMFG",−0.80 log 2
same,"light to heavy ratio (L/H ratio) of acetylated peptide, log 2 scale","LYATMEK(ac)HK (SEQ ID NO: 251), Histone acetyltransferase p300 [1590], EP300",0.00
same,light to heavy ratio (L/H ratio) of acetylated peptide AVLK(ac)[…] (SEQ ID NO: 262),"Laminin receptor-like protein LAMRL5 [89], SNORA6, RPSAP15, SNORA62, RPSA, drug:DMSO",0.00 log 2
same,light to heavy ratio (L/H ratio) of acetylated peptide SYVSEK(ac)DVTSAK (SEQ ID NO: 628),"Leucine-rich PPR motif-containing protein mitochondrial [1332], gene LRPPRC, inhibitor:DMSO",0.00 log 2
same,L/H ratio of acetylated peptide ICCQFDFK(ac)R (SEQ ID NO: 60),"MAN2A1 [373], log 2 scale, drug vs DMSO",0.00
same,L/H ratio of acetylated peptide YLTNQK(ac)NSNSK(ac)NDR (SEQ ID NO: 17),"MEAF6 [69:74], log 2 scale, drug vs DMSO",0.43
same,"light to heavy ratio (L/H ratio) of acetylated peptide, log 2 scale","MKENQK(ac)[…] (SEQ ID NO: 169), Isoform 2 of Heat shock protein HSP 90-alpha [611], HSP90AA1",0.00
same,L/H ratio of acetylated peptide,"MLEK(ac)DVCEK (SEQ ID NO: 446), Isoform 1 of Protein RUFY3 [382], RUFY3",0.62 log 2
same,L/H ratio of acetylated peptide,"MLK(ac)QMLFR (SEQ ID NO: 433), Proteasome subunit beta type-7 [127], PSMB7",−0.47 log 2
same,L/H ratio of acetylated peptide TLVLSDK(ac)HSPQK(ac)K (SEQ ID NO: 5),"MLL3 [2809:2814], log 2 scale, drug vs DMSO",0.38
same,L/H ratio of acetylated peptide LNK(ac)DQWEER (SEQ ID NO: 10),"MSN [165], log 2 scale, drug vs DMSO",0.71
same,light to heavy ratio (L/H ratio) of acetylated peptide VHLSQK(ac)YK (SEQ ID NO: 343),"Matrin-3 [473], MATR3, SNHG4, drug:DMSO",0.40 log 2
same,light to heavy ratio (L/H ratio) of acetylated peptide FLNK(ac)LAEER (SEQ ID NO: 342),"Matrin-3 [836], MATR3, SNHG4, drug:DMSO",−0.44 log 2
same,light to heavy ratio (L/H ratio) of acetylated peptide MTDK(ac)CFR (SEQ ID NO: 573),"Mitochondrial import inner membrane translocase subunit Tim13 [45], gene TIMM13, inhibitor:DMSO",0.00 log 2
same,"light to heavy ratio (L/H ratio), log 2 scale, acetylated peptide YVK(ac)ALFR (SEQ ID NO: 771)","Mitochondrial import receptor subunit TOM70 [188], gene TOMM70A, drug:DMSO",0.00
same,light to heavy ratio (L/H ratio) of acetylated peptide LSLLSK(ac)FR (SEQ ID NO: 564),"Mitochondrial trifunctional protein beta subunit (Fragment) [100], gene HADHB, inhibitor:DMSO",0.00 log 2
same,light to heavy ratio (L/H ratio) of acetylated peptide EIFQNEK(ac)R (SEQ ID NO: 288),"NAD(P) transhydrogenase mitochondrial [70], NNT, drug:DMSO",0.00 log 2
same,light to heavy ratio (L/H ratio) of acetylated peptide AISPDK(ac)DNFYFDVK (SEQ ID NO: 284),"NAD(P) transhydrogenase mitochondrial [403], NNT, drug:DMSO",0.00 log 2
same,"light to heavy ratio (L/H ratio) of acetylated peptide, log 2 scale","NIDPK(ac)PCTPR (SEQ ID NO: 148), Isoform 1 of DAZ-associated protein 1 [83], DAZAP1",0.00

# Source: patent US20140357512A1, “HISTONE DEACETYLASE (HDAC) BIOMARKERS IN MULTIPLE MYELOMA” (priority 2013, published 2014)
